Source: US4753953A, “Pyridonecarboxylic acid derivatives and antibacterial pharmaceutical compositions thereof” (priority 1985, dated 1988)
Read-outs that look alike come from different tables or passages of the source.

What was measured:
[1] = test system: Bacillus subtilis PCI 219; assay: MIC, in vitro antibacterial activity (standard strains); assay type: cell-based
[2] = test system: Staphylococcus aureus 209 P; assay: as above; assay type: cell-based; conditions: 10^6 cells/ml, Gram +
S. aureus Smith = assay: as above; assay type: cell-based, Staphylococcus aureus; conditions: 10^6 cells/ml, Gram +
[3] = test system: S. aureus IID 670 (Terajima); assay: as above; assay type: cell-based, Staphylococcus aureus
S. epidermidis IID 866 = assay: as above; assay type: cell-based; conditions: 10^6 cells/ml, Gram +
[4] = test system: Streptococcus pyogenes (S-8); assay: as above; assay type: cell-based
S. pyogenes IID 692 = assay: as above; assay type: cell-based, Streptococcus pyogenes; conditions: 10^6 cells/ml, Gram +
S. pneumoniae IID 552 = assay: as above; assay type: cell-based; conditions: 10^6 cells/ml, Gram +
E. faecalis IID 682 = assay: as above; assay type: cell-based
[5] = test system: Escherichia coli NIHJ JC-2; assay: as above; assay type: cell-based; conditions: 10^6 cells/ml, Gram -
E. coli ATCC 10536 = assay: as above; assay type: cell-based, Escherichia coli; conditions: 10^6 cells/ml, Gram -
E. coli ML 4707 [6] = assay: as above; assay type: cell-based, Escherichia coli; conditions: Gram -, Table 1
[7] = test system: Proteus vulgaris IFO 3167; assay: as above; assay type: cell-based
P. mirabilis IID 994 = assay: as above; assay type: cell-based; conditions: 10^6 cells/ml, Gram -
[8] = test system: Morganella morganii IID 602; assay: as above; assay type: cell-based; conditions: 10^6 cells/ml, Gram -
[9] = test system: Klebsiella pneumoniae KY(GN)6445; assay: as above; assay type: cell-based; conditions: 10^6 cells/ml, Gram -
K. pneumoniae 1-220S = assay: as above; assay type: cell-based, Klebsiella pneumoniae
[10] = test system: Enterobacter cloacae IID 977; assay: as above; assay type: cell-based; conditions: 10^6 cells/ml, Gram -
[11] = test system: Citrobacter freundii IID 976; assay: as above; assay type: cell-based
[12] = test system: Serratia marcescens IID 618; assay: as above; assay type: cell-based; conditions: 10^6 cells/ml, Gram -
Shigella sonnei IID 969 = assay: as above; assay type: cell-based; conditions: 10^6 cells/ml, Gram -
Experimental: Minimal inhibitory concentrations (MICs) were determined in accordance with the method recommended by Japan Society of Chemotherapy.

[13] = test system: Salmonella enteritidis IID 604; assay: as above; assay type: cell-based; conditions: 10^6 cells/ml, Gram -
[14] = test system: Pseudomonas aeruginosa V-1; assay: as above; assay type: cell-based
P. aeruginosa IFO 12689 = assay: as above; assay type: cell-based, Pseudomonas aeruginosa; conditions: 10^6 cells/ml, Gram -
P. aeruginosa IID 1210 = assay: as above; assay type: cell-based, Pseudomonas aeruginosa; conditions: 10^6 cells/ml, Gram -
P. cepacia GIFU 518 = assay: as above; assay type: cell-based; conditions: 10^6 cells/ml; Gram -
P. maltophilia GIFU 2491 = assay: as above; assay type: cell-based; conditions: 10^6 cells/ml, Gram -
[15] = test system: Yersinia enterocolitica IID 981; assay: as above; assay type: cell-based; conditions: 10^6 cells/ml, Gram -
[16] = test system: Acinetobacter anitratus IID 876; assay: as above; assay type: cell-based
[17] = test system: Alcaligenes faecalis 0114002; assay: as above; assay type: cell-based
[18] = test system: Bacteroides fragilis GM 7000; assay: as above; assay type: cell-based
B. fragilis 0558 = assay: as above; assay type: cell-based, Bacteroides fragilis
B. fragilis 25285 = assay: as above; assay type: cell-based, Bacteroides fragilis
B. distasonis 8503 = assay: as above; assay type: cell-based
[19] = test system: B. thetaiotaomicron (0661); assay: as above; assay type: cell-based; conditions: 10^6 cells/ml; Gram -
B. vulgatus KYA 29327 = assay: as above; assay type: cell-based; conditions: 10^6 cells/ml; Gram -
[20] = test system: Fusobacterium mortiferum 4249; assay: as above; assay type: cell-based; conditions: 10^6 cells/ml; Gram -
F. necrophorum S-45 = assay: as above; assay type: cell-based; conditions: 10^6 cells/ml; Gram -
F. varium KYA 8501 = assay: as above; assay type: cell-based; conditions: 10^6 cells/ml, Gram -
[21] = test system: Eubacterium lentum GAI 5242; assay: as above; assay type: cell-based; conditions: 10^6 cells/ml; Gram +
E. limosum KYA 8486 = assay: as above; assay type: cell-based; conditions: 10^6 cells/ml; Gram +
[22] = test system: Propionibacterium acens 11828; assay: as above; assay type: cell-based; conditions: 10^6 cells/ml; Gram +
[23] = test system: Peptococcus magnus KY 017; assay: as above; assay type: cell-based; conditions: 10^6 cells/ml; Gram +
C. perfringens KYA 13123 = assay: microbe, parasite or virus in culture; assay type: cell-based; conditions: 10^6 cells/ml; Gram +
C. ramosum = assay: MIC, in vitro antibacterial activity (standard strains); assay type: cell-based
[24] = test system: Peptostreptococcus anaerobius KYA 27337; assay: as above; assay type: cell-based; conditions: 10^6 cells/ml; Gram +
Pst. micros UPI 5464-1 = assay: as above; assay type: cell-based; conditions: 10^6 cells/ml, Gram +
[25] = test system: Veillonella parvula KYA 10790; assay: as above; assay type: cell-based; conditions: 10^6 cells/ml, Gram -
[26] = test system: Clostridium difficile I-E; assay: as above; assay type: cell-based; conditions: Clostridioides difficile; 10^6 cells/ml; Gram +
E. coli ML 4707 [27] = assay: Therapeutic efficacy against systemic infections in mice, E. coli ML 4707; conditions: Escherichia coli, ML4707, in Mus musculus, po, 1 h
MR S. aureus KYB 623 = assay: Therapeutic efficacy against systemic infections in mice, MR S. aureus KYB 623; conditions: Staphylococcus aureus, in Mus musculus, po, 1 h
S. pneumoniae S-4288 = assay: Therapeutic efficacy against systemic infections in mice, S. pneumoniae S-4288; conditions: Streptococcus pneumoniae, S4288, in Mus musculus, po, 1 h
[28] = Morganella morganii, IID602, read-out: MIC
[29] = Shigella sonnei, IID969, read-out: MIC

7-(3-Aminomethyl-4-methyl-1-pyrrolidinyl)-1-cyclopropyl-6,8-difluoro-1,4-dihydro-4-oxo-3-quinolinecarboxylic acid [Example 2]
0.0125 µg/mL: MIC ([1]; 10^6 cells/ml, Gram +)
1.56 µg/mL: MIC (E. limosum KYA 8486)
0.39 µg/mL: MIC (P. cepacia GIFU 518) | MIC (B. fragilis 0558; 10^6 cells/ml, Gram -) | MIC (B. fragilis 25285; 10^6 cells/ml, Gram -) | MIC [20] | MIC (F. necrophorum S-45) | MIC [22] | MIC (Pst. micros UPI 5464-1) | MIC [25]
0.78 µg/mL: MIC (P. aeruginosa IFO 12689) | MIC (P. aeruginosa IID 1210) | MIC ([18]; 10^6 cells/ml, Gram -) | MIC [19] | MIC (B. vulgatus KYA 29327) | MIC (F. varium KYA 8501) | MIC [21] | MIC (C. ramosum; 10^6 cells/ml, Gram +)
0.10 µg/mL: MIC (E. faecalis IID 682; 10^6 cells/ml, Gram +) | MIC [8] | MIC [12] | MIC ([14]; 10^6 cells/ml, Gram -) | MIC [24]
0.05 µg/mL: MIC ([4]; 10^6 cells/ml, Gram +) | MIC (S. pyogenes IID 692) | MIC (S. pneumoniae IID 552) | MIC ([7]; 10^6 cells/ml, Gram -) | MIC (P. mirabilis IID 994) | MIC [9] | MIC (K. pneumoniae 1-220S; 10^6 cells/ml, Gram -) | MIC [10] | MIC ([11]; 10^6 cells/ml, Gram -) | MIC [13] | MIC [15] | MIC ([16]; 10^6 cells/ml, Gram -)
3.13 µg/mL: MIC (B. distasonis 8503; 10^6 cells/ml, Gram -)
0.20 µg/mL: MIC (P. maltophilia GIFU 2491) | MIC ([17]; 10^6 cells/ml, Gram -) | MIC [23] | MIC (C. perfringens KYA 13123)
0.025 µg/mL: MIC [2] | MIC (S. aureus Smith) | MIC ([3]; 10^6 cells/ml, Gram +) | MIC (S. epidermidis IID 866) | MIC [5] | MIC (E. coli ATCC 10536) | MIC (E. coli ML 4707 [6]; 10^6 cells/ml) | MIC (Shigella sonnei IID 969)

CCn1cc(C(=O)O)c(=O)c2cc(F)c(N3CCNCC3)cc21 [NFLX, norfloxacin, reference compound]
0.05 µg/mL: MIC (E. coli ATCC 10536; Escherichia coli, ATCC10536, read-out: MIC) | MIC (E. coli ML 4707 [6]; Escherichia coli, ML4707, 10^6 cells/ml, read-out: MIC) | MIC ([7]; Proteus vulgaris, IFO3167, 10^6 cells/ml, Gram -, read-out: MIC) | MIC (P. mirabilis IID 994; Proteus mirabilis, IID994, read-out: MIC) | MIC [8, 28] | MIC ([9]; Klebsiella pneumoniae, read-out: MIC) | MIC ([11]; Citrobacter freundii, IID976, 10^6 cells/ml, Gram -, read-out: MIC) | MIC ([12]; Serratia marcescens, IID618, read-out: MIC) | MIC (Shigella sonnei IID 969; [29]) | MIC ([13]; Salmonella enterica, read-out: MIC)
3.13 µg/mL: MIC (S. pyogenes IID 692; Streptococcus pyogenes, IID692, read-out: MIC) | MIC (S. pneumoniae IID 552; Streptococcus pneumoniae, IID552, read-out: MIC) | MIC (P. aeruginosa IID 1210; Pseudomonas aeruginosa, IID1210, read-out: MIC)
0.78 µg/mL: MIC ([2]; Staphylococcus aureus, 209P, read-out: MIC) | MIC (S. aureus Smith; Staphylococcus aureus, read-out: MIC) | MIC (S. epidermidis IID 866; Staphylococcus epidermidis, IID866, read-out: MIC) | MIC (P. aeruginosa IFO 12689; Pseudomonas aeruginosa, IFO12689, read-out: MIC)
0.1 µg/mL: MIC ([1]; Bacillus subtilis, PCI219, 10^6 cells/ml, Gram +, read-out: MIC) | MIC (K. pneumoniae 1-220S; Klebsiella pneumoniae, 1220S, 10^6 cells/ml, Gram -, read-out: MIC) | MIC ([10]; Enterobacter cloacae, IID977, read-out: MIC) | MIC ([15]; Yersinia enterocolitica, IID981, read-out: MIC)
50 µg/mL: MIC [26] | MIC (C. ramosum; Thomasclavelia ramosa, 10^6 cells/ml, Gram +, read-out: MIC)
6.25 µg/mL: MIC (P. maltophilia GIFU 2491; Stenotrophomonas maltophilia, GIFU2491, read-out: MIC)
1.56 µg/mL: MIC ([3]; Staphylococcus aureus, IID670) | MIC ([4]; Streptococcus pyogenes) | MIC (E. faecalis IID 682; Enterococcus faecalis, IID682) | MIC ([16]; Acinetobacter calcoaceticus, IID876) | MIC ([17]; Alcaligenes faecalis, 0114002)
0.0563 µg/mL: MIC ([5]; Escherichia coli, NIHJJC2, read-out: MIC)
100 µg/mL: MIC (F. varium KYA 8501; Fusobacterium varium, KYA8501, read-out: MIC)
25 µg/mL: MIC ([18]; Bacteroides fragilis, GM7000, 10^6 cells/ml, Gram -, read-out: MIC) | MIC (B. fragilis 0558; Bacteroides fragilis, 0558, 10^6 cells/ml, Gram -, read-out: MIC) | MIC (B. fragilis 25285; Bacteroides fragilis, 25285, 10^6 cells/ml, Gram -, read-out: MIC)
0.39 µg/mL: MIC ([14]; Pseudomonas aeruginosa, V1, 10^6 cells/ml, Gram -, read-out: MIC)

O=C(O)c1cn(C2CC2)c2cc(N3CCNCC3)c(F)cc2c1=O [CPFX, ciprofloxacin, reference compound]
> 100 mg/kg: ED50 (S. pneumoniae S-4288)
≤ 0.0063 µg/mL: MIC (E. coli ML 4707 [6]; Escherichia coli, ML4707, 10^6 cells/ml) | MIC ([7]; Proteus vulgaris, IFO3167) | MIC ([11]; Citrobacter freundii, IID976) | MIC (Shigella sonnei IID 969; [29])
6.25 µg/mL: MIC (B. fragilis 25285; Bacteroides fragilis, 25285) | MIC (B. distasonis 8503; Parabacteroides distasonis, 8503) | MIC (C. ramosum; Thomasclavelia ramosa)
0.2 µg/mL: MIC ([14]; Pseudomonas aeruginosa, V1) | MIC (Pst. micros UPI 5464-1; Parvimonas micra, UPI54641, read-out: MIC) | MIC ([25]; Veillonella parvula, KYA10790, read-out: MIC)
1.4 mg/kg: ED50 (E. coli ML 4707 [27])
3.13 µg/mL: MIC ([18]; Bacteroides fragilis, GM7000) | MIC (B. fragilis 0558; Bacteroides fragilis, 0558)
37 mg/kg: ED50 (MR S. aureus KYB 623)
0.05 µg/mL: MIC ([1]; Bacillus subtilis, PCI219) | MIC [8, 28] | MIC (K. pneumoniae 1-220S; Klebsiella pneumoniae, 1220S)
